The text below walks through data of article PMC5547395 (EXCLI Journal, 2017).

In assay [1] the target is T1, Sterol 14α-demethylase (CYP51) from Candida albicans (CaCYP51) (Candida albicans, UniProt P10613).
T1 construct: gene ERG11
Briefly: UV-visible difference spectroscopy (type II spectral response) with isolated CYP51. In kind it is binding.

The target in the next assay is T2, human CYP51 (hCYP51) (Homo sapiens, UniProt Q16850).
T2 construct: gene CYP51A1
T2 sequence (Q16850 1-509): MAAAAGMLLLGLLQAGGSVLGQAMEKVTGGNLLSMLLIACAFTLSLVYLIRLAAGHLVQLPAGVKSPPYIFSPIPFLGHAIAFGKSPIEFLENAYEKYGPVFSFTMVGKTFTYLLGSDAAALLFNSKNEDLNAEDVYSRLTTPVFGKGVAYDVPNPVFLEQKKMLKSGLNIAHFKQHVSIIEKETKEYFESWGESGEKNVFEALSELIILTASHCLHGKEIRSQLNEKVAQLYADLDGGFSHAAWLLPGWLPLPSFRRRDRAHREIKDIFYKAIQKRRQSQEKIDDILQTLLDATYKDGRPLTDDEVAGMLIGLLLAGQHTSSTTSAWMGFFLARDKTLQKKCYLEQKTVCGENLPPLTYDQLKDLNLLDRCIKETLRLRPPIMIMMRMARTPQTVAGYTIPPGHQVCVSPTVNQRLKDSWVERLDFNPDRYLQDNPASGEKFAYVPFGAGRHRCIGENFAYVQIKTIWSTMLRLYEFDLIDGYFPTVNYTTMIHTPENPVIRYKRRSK
In words: Kd reported; presumably UV-visible difference spectroscopy (type II), human assay not described in Methods. In kind it is binding.

Structures are written as SMILES. Some results are limits rather than exact numbers.

T1 sequence (P10613 whole entry): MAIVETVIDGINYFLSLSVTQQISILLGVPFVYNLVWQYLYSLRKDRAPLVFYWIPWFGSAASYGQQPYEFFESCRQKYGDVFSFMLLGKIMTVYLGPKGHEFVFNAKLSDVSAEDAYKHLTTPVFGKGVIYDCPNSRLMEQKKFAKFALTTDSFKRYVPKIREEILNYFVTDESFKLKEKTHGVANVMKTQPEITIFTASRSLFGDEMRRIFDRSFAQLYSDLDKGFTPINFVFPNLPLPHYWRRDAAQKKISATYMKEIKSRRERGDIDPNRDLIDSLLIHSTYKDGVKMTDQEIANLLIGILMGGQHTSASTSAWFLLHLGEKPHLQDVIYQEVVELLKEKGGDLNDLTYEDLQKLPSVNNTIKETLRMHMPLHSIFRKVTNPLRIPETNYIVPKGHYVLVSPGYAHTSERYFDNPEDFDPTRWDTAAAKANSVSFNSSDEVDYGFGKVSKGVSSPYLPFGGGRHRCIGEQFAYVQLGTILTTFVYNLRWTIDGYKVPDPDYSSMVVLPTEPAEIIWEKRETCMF

Usually Kd stands for the free concentration of one partner at which half of the binding sites on the other are occupied at equilibrium, for simple one-to-one binding. High values mean weaker binding, low ones tighter binding. Consider `CC(=O)N1CCN(c2ccc(OC[C@H]3CO[C@](Cn4ccnc4)(c4ccc(Cl)cc4Cl)O3)cc2)CC1` (racemic) [ketoconazole], for which the Kd (in assay [1]; at human CYP51 (hCYP51)) was below 0.05 µM each time.
